Test results as given in patent US12139520B2 (priority 2020, dated 2024).
Bridge positions count the residues as written; N and C are the ends. Square brackets hold non-standard residues; d marks the D form. Peptide text beside a SMILES is read from it. Hyp = O=C(O)[C@@H]1C[C@@H](O)CN1

Assay: Physical stability of peptide analogues (Thioflavin T fibrillation)
Assay type: physicochemical
Conditions: maximum ThT signal normalized between hAMY maximum and buffer background; 40° C., shaking, four days; pH 7 per table title
Procedure: General Protocols for Determination of Physical Stability of Peptide Analogues
Peptides were dissolved in buffers (50 mM sodium acetate at pH 4 or 50 mM sodium phosphate at pH 7) and incubated for one hour. The samples were then divided into two replicates of 80 μl in a black 384 well plate (μ-clear, Greiner Bio-One) and mixed with Thioflavin T (ThT) to a final concentration of 4 μM. The plate was sealed and placed in a plate reader (CLARIOstar, BMG) where the temperature was set at 40° C. during the course of the experiment. The samples were further stressed by shaking the plate at 700 rpm (linear) for five minutes before every measurement. The fluorescence was measured every 10 min for four days by exciting the ThT at 450 nm and measuring the emission at 480 nm. For each peptide, the ThT signal over time was smoothened using Local Polynomial Regression fitting (LOESS) as implemented in the statistical programming environment R. For the smoothened data, the maximum ThT signal was normalized in percent between the maximum ThT signal for hAMY and the buffer background.

| Max ThT signal (%) | Structure (SMILES) |
| --- | --- |
| 5.600 | CC[C@H](C)[C@H](NC(=O)[C@H](CCC(N)=O)NC(=O)[C@H](Cc1c[nH]cn1)NC(=O)[C@H](C)NC(=O)[C@H](CC(C)C)NC(=O)[C@H](CCCNC(=N)N)NC(=O)[C@H](CCC(N)=O)NC(=O)[C@@H](NC(=O)[C@@H](NC(=O)[C@@H]1CSSC[C@H](NC(=O)CN)C(=O)N[C@@H](CCCNC(=N)N)C(=O)N[C@@H]([C@@H](C)O)C(=O)NCC(=O)N[C@@H]([C@@H](C)O)C(=O)N1)[C@@H](C)O)C(C)C)C(=O)N[C@@H](Cc1ccc(O)cc1)C(=O)N[C@@H](CCC(N)=O)C(=O)N[C@@H](Cc1ccccc1)C(=O)N[C@H](C(=O)N[C@@H](CC(=O)O)C(=O)N[C@@H](CCCCN)C(=O)N[C@@H](CC(=O)O)C(=O)N[C@@H](CCCCN)C(=O)N[C@@H](CC(=O)O)C(=O)N[C@@H](CC(N)=O)C(=O)N[C@H](C(=O)N[C@@H](C)C(=O)N1CCC[C@H]1C(=O)N[C@@H](CCCNC(=N)N)C(=O)N[C@H](C(=O)N[C@@H](CCCCN)C(=O)N[C@H](C(=O)N[C@@H](CO)C(=O)N1CCC[C@H]1C(=O)N[C@@H](CC(N)=O)C(=O)NCC(=O)N1C[C@H](O)C[C@H]1C(N)=O)[C@@H](C)CC)[C@@H](C)O)C(C)C)[C@@H](C)O [compound 197] (H-GCRTGTCTVQRLAHQIYQFTDKDKDNVAPRTKISPNG[Hyp]-NH2; disulfide 2-7; N-terminus assumed) |
| 0.800 | CC[C@H](C)[C@H](NC(=O)[C@H](CCC(N)=O)NC(=O)[C@H](Cc1c[nH]cn1)NC(=O)[C@H](C)NC(=O)[C@H](CC(C)C)NC(=O)[C@H](CCCNC(=N)N)NC(=O)[C@H](CCC(N)=O)NC(=O)[C@@H](NC(=O)[C@@H](NC(=O)[C@@H]1CSSC[C@H](NC(=O)CN)C(=O)N[C@@H](CCCNC(=N)N)C(=O)N[C@@H]([C@@H](C)O)C(=O)NCC(=O)N[C@@H]([C@@H](C)O)C(=O)N1)[C@@H](C)O)C(C)C)C(=O)N[C@@H](Cc1ccc(O)cc1)C(=O)N[C@@H](CCC(N)=O)C(=O)N[C@@H](Cc1ccccc1)C(=O)N[C@H](C(=O)N[C@@H](CC(=O)O)C(=O)N[C@@H](CCCCN)C(=O)N[C@@H](Cc1ccccc1)C(=O)N[C@@H](CCCCN)C(=O)N[C@@H](CC(=O)O)C(=O)N[C@@H](CC(N)=O)C(=O)N[C@H](C(=O)N[C@@H](C)C(=O)N1CCC[C@H]1C(=O)N[C@@H](CCCNC(=N)N)C(=O)N[C@@H](CO)C(=O)N[C@@H](CCCCN)C(=O)N[C@H](C(=O)N[C@@H](CO)C(=O)N1CCC[C@H]1C(=O)N[C@@H](CCC(N)=O)C(=O)N[C@H](C(=O)N1CCC[C@H]1C(N)=O)[C@@H](C)O)[C@@H](C)CC)C(C)C)[C@@H](C)O [compound 235] (H-GCRTGTCTVQRLAHQIYQFTDKFKDNVAPRSKISPQTP-NH2; disulfide 2-7; N-terminus assumed) |
| 0.900 | CC[C@H](C)[C@H](NC(=O)[C@H](CCC(N)=O)NC(=O)[C@H](Cc1c[nH]cn1)NC(=O)[C@H](C)NC(=O)[C@H](CC(C)C)NC(=O)[C@H](CCCNC(=N)N)NC(=O)[C@H](CCC(N)=O)NC(=O)[C@@H](NC(=O)[C@@H](NC(=O)[C@@H]1CSSC[C@H](NC(=O)CN)C(=O)N[C@@H](CCCNC(=N)N)C(=O)N[C@@H]([C@@H](C)O)C(=O)NCC(=O)N[C@@H]([C@@H](C)O)C(=O)N1)[C@@H](C)O)C(C)C)C(=O)N[C@@H](Cc1ccc(O)cc1)C(=O)N[C@@H](CCC(N)=O)C(=O)N[C@@H](Cc1ccccc1)C(=O)N[C@H](C(=O)N[C@@H](CC(=O)O)C(=O)N[C@@H](CCCCN)C(=O)N[C@@H](Cc1ccccc1)C(=O)N[C@@H](CCCCN)C(=O)N[C@@H](CC(=O)O)C(=O)N[C@@H](CC(N)=O)C(=O)N[C@H](C(=O)N[C@@H](C)C(=O)N1CCC[C@H]1C(=O)N[C@@H](CCCNC(=N)N)C(=O)N[C@@H](CO)C(=O)N[C@@H](CCCCN)C(=O)N[C@H](C(=O)N[C@@H](CO)C(=O)N1CCC[C@H]1C(=O)N[C@@H](CCC(N)=O)C(=O)N[C@H](C(=O)N[C@@H](C)C(N)=O)[C@@H](C)O)[C@@H](C)CC)C(C)C)[C@@H](C)O [compound 241] (H-GCRTGTCTVQRLAHQIYQFTDKFKDNVAPRSKISPQTA-NH2; disulfide 2-7; N-terminus assumed) |
| 1.600 | CC[C@H](C)[C@H](NC(=O)[C@H](CCC(N)=O)NC(=O)[C@H](Cc1c[nH]cn1)NC(=O)[C@H](C)NC(=O)[C@H](CC(C)C)NC(=O)[C@H](CCCNC(=N)N)NC(=O)[C@H](CCC(N)=O)NC(=O)[C@@H](NC(=O)[C@@H](NC(=O)[C@@H]1CSSC[C@H](NC(=O)CN)C(=O)N[C@@H](CCCNC(=N)N)C(=O)N[C@@H]([C@@H](C)O)C(=O)NCC(=O)N[C@@H]([C@@H](C)O)C(=O)N1)[C@@H](C)O)C(C)C)C(=O)N[C@@H](Cc1ccc(O)cc1)C(=O)N[C@@H](CCC(N)=O)C(=O)N[C@@H](Cc1ccccc1)C(=O)N[C@H](C(=O)N[C@@H](CC(=O)O)C(=O)N[C@@H](CCCCN)C(=O)N[C@@H](CC(=O)O)C(=O)N[C@@H](CCCCN)C(=O)N[C@@H](CC(=O)O)C(=O)N[C@@H](CC(N)=O)C(=O)N[C@H](C(=O)N[C@@H](C)C(=O)N1CCC[C@H]1C(=O)N[C@@H](CCCNC(=N)N)C(=O)N[C@@H](CO)C(=O)N[C@@H](CCCCN)C(=O)N[C@H](C(=O)NCC(=O)N1CCC[C@H]1C(=O)N[C@@H](CCC(N)=O)C(=O)NCC(=O)N1C[C@H](O)C[C@H]1C(N)=O)C(C)C)C(C)C)[C@@H](C)O [compound 187] (H-GCRTGTCTVQRLAHQIYQFTDKDKDNVAPRSKVGPQG[Hyp]-NH2; disulfide 2-7; N-terminus assumed) |
| 8.500 | CC[C@H](C)[C@H](NC(=O)[C@H](CCC(N)=O)NC(=O)[C@H](Cc1c[nH]cn1)NC(=O)[C@H](C)NC(=O)[C@H](CC(C)C)NC(=O)[C@H](CCCNC(=N)N)NC(=O)[C@H](CCC(N)=O)NC(=O)[C@@H](NC(=O)[C@@H](NC(=O)[C@@H]1CSSC[C@H](NC(=O)CN)C(=O)N[C@@H](CCCNC(=N)N)C(=O)N[C@@H]([C@@H](C)O)C(=O)NCC(=O)N[C@@H]([C@@H](C)O)C(=O)N1)[C@@H](C)O)C(C)C)C(=O)N[C@@H](Cc1c[nH]cn1)C(=O)N[C@@H](CCC(N)=O)C(=O)N[C@@H](Cc1ccccc1)C(=O)N[C@H](C(=O)N[C@@H](CC(N)=O)C(=O)N[C@@H](CCCCN)C(=O)N[C@@H](CC(=O)O)C(=O)N[C@@H](CCCCN)C(=O)N[C@@H](CC(=O)O)C(=O)N[C@@H](CC(N)=O)C(=O)N[C@H](C(=O)N[C@@H](C)C(=O)N1CCC[C@H]1C(=O)N[C@@H](CCCNC(=N)N)C(=O)N[C@@H](CO)C(=O)N[C@@H](CCCCN)C(=O)N[C@H](C(=O)N[C@@H](CO)C(=O)N1CCC[C@H]1C(=O)N[C@@H](CCC(N)=O)C(=O)N[C@H](C(=O)N1C[C@H](O)C[C@H]1C(N)=O)[C@@H](C)O)[C@@H](C)CC)C(C)C)[C@@H](C)O [compound 227] (H-GCRTGTCTVQRLAHQIHQFTNKDKDNVAPRSKISPQT[Hyp]-NH2; disulfide 2-7; N-terminus assumed) |
